For data set [1] the following is noted: in vivo.
In data set [2] the test system is marine copepod Arcatia tonsa. Kind of data set: Static 48 hour toxicity test on marine copepod (draft ISO 14669:1999(E)). The data set is classed as in vivo. The note with it: test range 200.0 to 2000.0 mg l-1.
Experimental: Test concentrations of sodium molybdate crystalline were prepared over the range 200.0 mg 1^−1 to 2000.0 mg 1^−1.
Data set [3] in a line: Amounts of electron transfer agents needed to reduce 2500 ppm ferric ion in less than five minutes (Example III). Conditions: 15 lbs./Mgal Na2MoO4 in 15% HCl, room temperature.
Experimental: The above concentrations were arrived at from room temperature experiments.
Next, tests were conducted to determine the optimum amounts of the electron transfer agent(s) that should be employed in the inventive acidizing composition. Each test fluid included 1% by volume thioglycolic acid, based on the total volume of the acid solution and was contaminated with 2500 ppm ferric ion (by adding a sufficient amount of ferric chloride to the fluid).
These fluids also included the primary electron transfer agent, either sodium molybdate or ammonium molybdate. The amount the molybdate utilized was varied.
These fluids also included the primary electron transfer agent, either sodium molybdate or ammonium molybdate, and the supplemental electron transfer agent (potassium iodide). The amounts of the molybdate and potassium iodide utilized were varied.
The tests were carried out at room temperature. The test fluids were contaminated with 2500 ppm of ferric ion by adding a corresponding amount of iron chloride (FeCl3.H2O) thereto.
It was determined that a complete reduction had taken place when the test fluids changed back to the red-brown color.
It was determined that a complete reduction had taken place when the test fluids changed back to the emerald green color (verified by UV-VIS experiments).

Where only a bound is given, the exact number is not on record here.

The text below walks through data of patent publication US6534448B1, “Composition and method for acidizing wells and equipment without damaging precipitation” (Halliburton Energy Services, Inc., priority 2000, dated 2003).

`[Cl][Cu]` [cuprous chloride]: in data set [1], the “concentration found to be toxic” value was ≥ 10 ng/mL.
Consider `[Na+].[Na+].[O]=[Mo](=[O])([O-])[O-]` [sodium molybdate crystalline, sodium molybdate], for which the “24 hour EC50 (concentration which immobilized 50% of the copepods)” value in data set [2] (24 hours) is > 2000.0 µg/mL. In addition, in data set [2] (48 hours), the “48 hour EC50 (concentration which immobilized 50% of the copepods)” value is > 2000.0 µg/mL. For the same molecule, the “time required for reduction of 2500 ppm Fe(III) to Fe(II)” value in data set [3] lay in the range of 2 to 3 min.
